Results: US20240261443A1, “COMPOUNDS AND COMPOSITIONS USEFUL AS RADIOTRACERS FOR IMAGING OF REACTIVE OXIDATIVE SPECIES” (Wake Forest University Health Sciences, priority 2019, published 2024)

Experiments:
[1] = tested on: PC3 cells; experiment: [18F]KS1 in vitro cell uptake in PC3 cells, normoxic and hypoxic; type: cell-based, human
Protocol: ROS efficacy was evaluated in two tumor cell lines: (1)SCC-61 and rSCC-61 cells (HNSCC) (FIG. 5), and (2) PC3 (PCa) cell lines under normoxic and hypoxic conditions (FIG. 6) following previously published protocols by our group (Sai et al., Peptide-based PET imaging of the tumor restricted IL13RA2 biomarker. Oncotarget 2017, 5; Yamamoto et al., Correlation of 18F-FLT and 18F-FDG uptake on PET with Ki-67 immunohistochemistry in non-small cell lung cancer. European Journal of Nuclear Medicine and Molecular Imaging 2007, 34 (10), 1610-1616; Solingapuram Sai et al., Radiolabeling and initial biological evaluation of [18F]KBM-1 for imaging RAR-α receptors in neuroblastoma. Bioorganic & Medicinal Chemistry Letters 2017, 27 (6), 1425-1427). Several ROS blockers including fresh solution of non-radioactive compounds KS1, KS2, SOD (10 μM) in the cell media were added to the seeded tumor cells 1.0 h prior to radiotracer addition (n=6 per blocker). All the cells were then treated with [^18F]KS1 (2.0 μCi/well, UV mass=0.4 μg/mL and S.A=3100 mCi/μmol) and incubated for 60 min (n=6) at 37° C. All the cells (both with and without blockers) were washed and lysed with lysate buffer solution. Lysate samples from each well were collected for gamma counting.
Similarly, in another experiment, human PCa-PC3 cells were cultured under normoxic (˜21% O2) or hypoxic (1% O2) conditions for 48 h. Thereafter, similar to HNSCC cells (detailed above) all assay steps including blocker treatment, radiotracer addition, incubations, washings and lysis were carried out under normoxic or hypoxic conditions. All hypoxia experiments were performed in a hypoxia chamber (Biospherix X3 Xvivo system). Plates without radioactivity were used as controls. […] The counts per minute values of each well were normalized to the amount of radioactivity added to each well and was expressed as percent uptake relative to the control condition. The data were expressed as % ID/mg of protein present in each well.
To further test the specificity of [^18F]KS1 for ROS, radioactive uptake in PCa cells was tested under hypoxic conditions, as several studies have shown that hypoxic conditions promote ROS generation and oxidative stress (Kumar et al., Oxidative Stress Is Inherent in Prostate Cancer Cells and Is Required for Aggressive Phenotype. Cancer Research. 2008; 68:1777-85; Pinthus et al., Androgen Induces Adaptation to Oxidative Stress in Prostate Cancer: Implications for Treatment with Radiation Therapy. Neoplasia (New York, NY). 2007; 9:68-80; Cervellati et al., Hypoxia induces cell damage via oxidative stress in retinal epithelial cells. […] A reported hypoxia model of PCa cells was tested in which the uptake of [^18F]KS1 was evaluated in PC3 cells cultured under hypoxic conditions versus normoxic conditions.

[2] = tested on: SCC-61 and rSCC-61 tumors; experiment: microPET/CT imaging in SCC-61 and rSCC-61 tumor-bearing mice; type: in vivo
Excerpt: After evaluating the complete in vitro ROS uptake and stability profile of [^18F]KS1, we performed in vivo microPET/CT scans in tumor-bearing mice. To test our hypothesis of selective binding of [^18F]KS1 to image ROS in tumor tissue, we reported the baseline and blocking PET imaging data in a murine model of PCa (Solingapuram Sai et al., Initial biological evaluations of 18F-KS1, a novel ascorbate derivative to image oxidative stress in cancer. EJNMMI Research 2019, 9 (1), 43). Further, to test the differential ROS uptake of [^18F]KS1, microPET/CT imaging experiments were performed in both SCC-61 and rSCC-61 tumor-bearing mice (n=5, 25±2.5 g).

[3] = tested on: normal organs; experiment: Toxicity observation in blocking studies, KS1 15 mg/kg; type: in vivo; settings: 15 mg/kg injected
Protocol: Athymic nude mice (Taconic Farms) were housed in a pathogen-free facility of the Animal Research Program at Wake Forest School of Medicine under a 12:12-h light/dark cycle and fed ad libitum. All animal experiments were conducted under IACUC approved protocols in compliance with the guidelines for the care and use of research animals established by Wake Forest Medical School Animal Studies Committee. PC3 cells (1×10^5 cells suspended in 10 μL matrigel) were implanted in the left flank of nude mice (25-30 g) as described previously. […] Samples of tumor, blood, brain, heart, lung, liver, spleen, pancreas, kidney, muscle and bone were harvested, weighed, and gamma counted with a standard dilution of the injectate (Chu et al., Development of a PET Radiotracer for Noninvasive Imaging of the Reactive Oxygen Species, Superoxide, in vivo. Organic & biomolecular chemistry. 2014; 12:4421-31; Sai et al., Radiolabeling and initial biological evaluation of [(18)F]KBM-1 for imaging RAR-α receptors in neuroblastoma. Bioorganic & medicinal chemistry letters. 2017; 27:1425-7; Kumar et al., Radiosynthesis and in Vivo Evaluation of [11C]MPC-6827, the First Brain Penetrant Microtubule PET Ligand. […] The percentage of the injected dose per gram of tissue (% ID/g) was calculated.

residual uptake in other organs, including bladder and kidney ([2]; post 1-h radiotracer injection) | Compound | uptake blocked by SOD ([1]; PC3 cells) | uptake blocked by nonradioactive KS1 ([1]; PC3 cells) | uptake increase with doxorubicin ([1]; PC3 cells) | radioactive uptake in PC3 under hypoxic conditions versus normoxic conditions ([1]; hypoxic 1% O2 vs normoxic ~21% O2, 60 min) | tumor uptake in SCC-61 tumors versus rSCC-61 tumors ([2]; ROI analysis on PET scans) | toxicity in normal organs [3]
no residual uptake | O=C1O/C(=C/CCl)C(O)=C1OCc1ccc(OCC[18F])cc1 [[^18F]KS1] | ~48% | ~61% | ~15% | ~2 fold | ~1.2 fold | 
 | O=C1O/C(=C/CCl)C(O)=C1OCc1ccc(OCCF)cc1 [KS1, (E)-5-(2-chloroethylidene)-3-(4-(2-fluoroethoxy)benzyloxy)-4-hydroxyfuran-2(5H)-one] |  |  |  |  |  | did not observe any toxicity
